From US7294637B2 (Sepracor, Inc., priority 2000, dated 2007)
Read-outs that look alike come from different tables or passages of the source.

Key:
[1] = molecular target: norepinephrine transporter (Homo sapiens, UniProt P23975); experiment: NE uptake: displacement of norephinephrine ligands in vitro (methods of Galli et al.); type: binding
serotonin transporter = serotonin transporter (Homo sapiens, UniProt P31645); experiment: 5-HT uptake: displacement of serotonin ligands in vitro (methods of Gu et al.); type: binding; conditions: displacement of serotonin ligands in vitro; read-out: 5-HT Uptake, Uptake Profile (IC50)
Chain of serotonin transporter (P31645 whole entry): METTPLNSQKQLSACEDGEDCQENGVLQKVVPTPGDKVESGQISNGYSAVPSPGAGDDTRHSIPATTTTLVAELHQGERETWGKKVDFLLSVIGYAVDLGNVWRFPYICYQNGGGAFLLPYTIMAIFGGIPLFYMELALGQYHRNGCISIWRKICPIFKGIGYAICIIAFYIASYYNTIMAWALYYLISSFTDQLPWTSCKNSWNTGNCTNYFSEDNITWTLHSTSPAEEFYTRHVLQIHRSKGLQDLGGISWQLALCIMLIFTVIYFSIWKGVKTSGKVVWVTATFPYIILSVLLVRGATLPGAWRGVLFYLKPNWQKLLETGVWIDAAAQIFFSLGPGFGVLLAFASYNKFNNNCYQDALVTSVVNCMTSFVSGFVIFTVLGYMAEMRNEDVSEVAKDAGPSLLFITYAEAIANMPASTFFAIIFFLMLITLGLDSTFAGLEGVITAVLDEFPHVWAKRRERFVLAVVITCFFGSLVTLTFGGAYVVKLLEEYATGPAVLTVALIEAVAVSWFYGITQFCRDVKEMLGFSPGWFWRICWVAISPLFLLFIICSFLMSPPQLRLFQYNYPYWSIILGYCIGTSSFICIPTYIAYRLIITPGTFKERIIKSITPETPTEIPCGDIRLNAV

dopamine transporter = dopamine transporter (Homo sapiens, UniProt Q01959); experiment: DA uptake: displacement of dopamine ligands in vitro (methods of Gu et al.)
Chain of dopamine transporter (Q01959 whole entry): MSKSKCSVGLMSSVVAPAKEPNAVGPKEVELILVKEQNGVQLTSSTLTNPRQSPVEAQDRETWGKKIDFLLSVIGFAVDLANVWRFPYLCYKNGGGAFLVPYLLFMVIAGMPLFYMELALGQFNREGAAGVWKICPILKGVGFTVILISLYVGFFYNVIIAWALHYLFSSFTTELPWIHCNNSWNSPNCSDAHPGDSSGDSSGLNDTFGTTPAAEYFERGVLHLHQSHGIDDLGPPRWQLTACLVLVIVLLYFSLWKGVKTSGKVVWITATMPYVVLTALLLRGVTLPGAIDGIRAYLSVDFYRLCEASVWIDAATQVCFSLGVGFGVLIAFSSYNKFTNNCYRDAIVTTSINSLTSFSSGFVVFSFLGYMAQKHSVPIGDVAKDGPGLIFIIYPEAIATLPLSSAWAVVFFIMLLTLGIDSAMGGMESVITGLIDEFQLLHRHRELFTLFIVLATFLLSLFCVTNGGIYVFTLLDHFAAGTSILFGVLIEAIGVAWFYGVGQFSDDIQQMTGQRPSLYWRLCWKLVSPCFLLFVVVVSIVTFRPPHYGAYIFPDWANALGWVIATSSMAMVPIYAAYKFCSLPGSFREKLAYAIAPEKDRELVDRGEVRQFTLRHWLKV

[2] = NE Uptake, Uptake Profile (IC50, nM)
[3] = DA Uptake, Uptake Profile (IC50, nM), displacement of dopamine ligands in vitro
[4] = read-out: NE Uptake, Uptake Profile (IC50)

Chain of norepinephrine transporter (P23975 whole entry): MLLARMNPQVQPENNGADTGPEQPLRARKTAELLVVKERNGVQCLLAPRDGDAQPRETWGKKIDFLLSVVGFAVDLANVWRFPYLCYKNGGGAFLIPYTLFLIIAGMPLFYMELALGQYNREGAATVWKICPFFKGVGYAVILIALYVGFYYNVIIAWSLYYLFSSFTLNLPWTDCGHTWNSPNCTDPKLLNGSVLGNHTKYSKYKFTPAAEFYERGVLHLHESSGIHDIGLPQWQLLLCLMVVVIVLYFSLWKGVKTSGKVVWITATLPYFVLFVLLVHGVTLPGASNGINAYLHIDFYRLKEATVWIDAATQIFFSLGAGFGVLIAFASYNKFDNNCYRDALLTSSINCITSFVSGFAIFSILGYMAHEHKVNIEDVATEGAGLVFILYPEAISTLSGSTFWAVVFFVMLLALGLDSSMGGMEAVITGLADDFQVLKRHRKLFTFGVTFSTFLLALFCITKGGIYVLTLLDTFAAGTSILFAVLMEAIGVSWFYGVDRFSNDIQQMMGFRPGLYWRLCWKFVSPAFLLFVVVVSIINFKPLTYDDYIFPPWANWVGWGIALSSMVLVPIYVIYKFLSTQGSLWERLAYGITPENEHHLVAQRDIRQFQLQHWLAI

SMILES: FC(F)(F)c1ccc(OCC2CCCN(CC3(c4ccc(Cl)cc4)CCOCC3)C2)cc1 (stereo not drawn) [compound 159, 1-[4-(4-Chloro-phenyl)-tetrahydro-piran-4-ylmethyl]-3-(4-trifluoromethyl-phenoxymethyl)piperidine]
- IC50 [1, 2]: < 1000 nM
- IC50 (serotonin transporter): < 1000 nM
- IC50 (dopamine transporter; [3]): < 100 nM

SMILES: O=C(CN1CCCC(CCc2ccc(C(F)(F)F)cc2)C1)c1ccc(Cl)cc1 (stereo not drawn) [compound 150, 1-(4-Chloro-phenyl)-2-{3-[2-(4-trifluoromethyl-phenyl)-ethyl]-piperidin-1-yl}-ethanone]
- IC50 [1, 4]: > 1000 nM
- IC50 (serotonin transporter): > 1000 nM
- IC50 (dopamine transporter): > 1000 nM

SMILES: FC(F)(F)c1ccc(OCCC2CCCN(CC3(c4ccc(Cl)cc4)CCC3)C2)cc1 (stereo not drawn) [compound 39, 1-[1-(4-Chloro-phenyl)-cyclobutylmethyl]-3-[2-(4-trifluoromethyl-phenoxy)-ethyl]-piperidine]
- IC50 [1, 2]: < 100 nM
- IC50 (serotonin transporter): > 1000 nM
- IC50 (dopamine transporter; [3]): < 10 nM

SMILES: CN(C)CC(Oc1ccc(C(F)(F)F)cc1)C1CCCN(C(=O)C2(c3ccc(Cl)cc3)CCC2)C1 (racemic) [compound 173]
- IC50 [1, 2]: > 1000 nM
- IC50 (serotonin transporter): < 100 nM
- IC50 (dopamine transporter; [3]): > 1000 nM

SMILES: FC(F)(F)c1ccc(OCC2CCCCN(CC3(c4ccc(Cl)cc4)CCC3)C2)cc1 (stereo not drawn) [compound 168, 1-[1-(4-Chloro-phenyl)-cyclobutylmethyl]-3-(4-trifluoromethyl-phenoxymethyl)-azepane]
- IC50 [1, 2]: < 1000 nM
- IC50 (serotonin transporter): > 1000 nM
- IC50 (dopamine transporter; [3]): < 100 nM

SMILES: OC(CN1CCCC(CCc2ccccc2)C1)c1ccc(Cl)cc1 (stereo not drawn) [compound 140, 1-(4-Chloro-phenyl)-2-(3-phenethyl-piperidin-1-yl)-ethanol]
- IC50 [1, 2]: < 100 nM
- IC50 (serotonin transporter): < 100 nM
- IC50 (dopamine transporter; [3]): < 100 nM

SMILES: CC(CC1CCCN(CC2(c3ccc(Cl)cc3)CCC2)C1)c1ccccc1 (stereo in doubt) [compound 186, (S)-1-[1-(4-Chloro-phenyl)-cyclobutylmethyl]-3-(2-phenyl-propyl)-piperidine]
- IC50 [1, 2]: < 1000 nM
- IC50 (serotonin transporter): < 1000 nM
- IC50 (dopamine transporter; [3]): < 1000 nM

SMILES: O=C(N1CCCOC(COc2ccc(C(F)(F)F)cc2)C1)C1(c2ccc(Cl)cc2)CCC1 (stereo not drawn) [compound 16, [1-(4-Chloro-phenyl)-cyclobutyl]-[2-(4-trifluoromethyl-phenoxymethyl)-[1,4]oxazepan-4-yl]-methanone]
- IC50 [1, 4]: > 1000 nM
- IC50 (serotonin transporter): > 1000 nM
- IC50 (dopamine transporter): > 1000 nM

SMILES: FC(F)(F)c1ccc(CCC2CCCN(CC3(c4ccc(Cl)cc4)CCC3)C2)cc1 (stereo not drawn) [compound 95, 1-[1-(4-Chloro-phenyl)-cyclobutylmethyl]-3-[2-(4-trifluoromethyl-phenyl)-ethyl]-piperidine]
- IC50 [1, 4]: > 1000 nM
- IC50 (serotonin transporter): < 1000 nM
- IC50 (dopamine transporter; [3]): < 1000 nM

SMILES: FC(F)(F)c1ccc(OCC2CCCN(CC3COc4ccccc4O3)C2)cc1 (single isomer, unassigned) [compound 178, 1-(2,3-Dihydro-benzo[1,4]dioxin-2-ylmethyl)-3-(4-trifluoromethyl-phenoxymethyl)-piperidine]
- IC50 [1, 2]: < 1000 nM
- IC50 (serotonin transporter): < 1000 nM
- IC50 (dopamine transporter; [3]): < 1000 nM

SMILES: OC(CN1CCCC(CCc2ccc(C(F)(F)F)cc2)C1)c1ccc(Cl)cc1 (single isomer, unassigned) [compound 153, 1-(4-Chloro-phenyl)-2-{3-[2-(4-trifluoromethyl-phenyl)-ethyl]-piperidin-1-yl}-ethanol]
- IC50 [1, 2]: < 100 nM
- IC50 (serotonin transporter): < 10 nM
- IC50 (dopamine transporter; [3]): < 100 nM

SMILES: FC(F)(F)c1ccc(OCC2CNCCCO2)cc1 (stereo not drawn) [compound 15, 2-(4-trifluoromethyl-phenoxymethyl)-[1,4]oxazepane]
- IC50 [1, 4]: > 1000 nM
- IC50 (serotonin transporter): > 1000 nM
- IC50 (dopamine transporter; [3]): > 1000 nM

SMILES: O=C(N1CCCC(CO)C1)C1(c2ccc(Cl)cc2)CCC1 (stereo not drawn) [compound 1, [1-(4-chloro-phenyl)-cyclobutyl]-(3-hydroxymethylpiperidin-1yl)-methadone]
- IC50 [1, 2]: > 1000 nM
- IC50 (serotonin transporter): > 1000 nM
- IC50 (dopamine transporter; [3]): > 1000 nM

SMILES: CC(C)(CN1CCCC(COc2ccc(C(F)(F)F)cc2)C1)c1ccc(Cl)cc1 (stereo not drawn) [compound 42, 1-[2-(chloro-phenyl)-2-methyl-propyl]-3-(4-trifluoromethyl-phenoxymethyl)-piperidine]
- IC50 [1, 4]: < 1000 nM
- IC50 (serotonin transporter): > 1000 nM
- IC50 (dopamine transporter; read-out: DA Uptake, Uptake Profile (IC50), displacement of dopamine ligands in vitro): < 100 nM

SMILES: FC(F)(F)c1ccc(SCC2CCCN(CC3(c4ccc(Cl)cc4)CCC3)C2)cc1 (stereo not drawn) [compound 78]
- IC50 [1, 2]: < 1000 nM
- IC50 (serotonin transporter): > 1000 nM
- IC50 (dopamine transporter; [3]): < 1000 nM

SMILES: OC(CN1CCCC(CCc2ccc(C(F)(F)F)cc2)C1)c1ccc(Cl)cc1 (single isomer, unassigned) [compound 151, 1-(4-Chloro-phenyl)-2-{3-[2-(4-trifluoromethyl-phenyl)-ethyl]-piperidin-1-yl}-ethanol]
- IC50 [1, 2]: < 1000 nM
- IC50 (serotonin transporter): < 1000 nM
- IC50 (dopamine transporter; [3]): < 1000 nM

SMILES: O=C(CN1CCCC(COc2ccc(C(F)(F)F)cc2)C1)C1(c2ccc(Cl)cc2)CCC1 (stereo not drawn) [compound 23, 1-[1-(4-Chlorophenyl)cyclobutyl]-2-[3-(4-trifluoromethyl-phenoxymethyl)piperidin-1-yl]ethanone]
- IC50 [1, 2]: < 1000 nM
- IC50 (serotonin transporter): > 1000 nM
- IC50 (dopamine transporter; [3]): < 100 nM

SMILES: O=C(CC1CCCN(CC2(c3ccc(Cl)cc3)CCC2)C1)c1ccccc1 (stereo in doubt) [compound 183, (S)-[2-{1-[1-(4-Chloro-phenyl)-cyclobutylmethyl]-piperidin-3-yl}-1-phenyl-ethanone]]
- IC50 [1, 2]: < 1000 nM
- IC50 (serotonin transporter): < 1000 nM
- IC50 (dopamine transporter; [3]): < 1000 nM

SMILES: COC(CN1CCC[C@@H](CCc2ccccc2)C1)c1ccc(Cl)cc1 (stereo partly drawn) [compound 196, 1-[2-(4-Chloro-phenyl)-2-methoxy-ethyl]-3-(R)-phenethyl-piperidine]
- IC50 [1, 2]: < 100 nM
- IC50 (serotonin transporter): < 10 nM
- IC50 (dopamine transporter; [3]): < 100 nM

SMILES: FC(F)(F)c1ccc(CCC2CCCN(CC3(c4ccccc4)CCC3)C2)cc1 (stereo not drawn) [compound 93, 1-(1-phenyl-cyclobutylmethyl]-3-[2-(4-trifluoromethyl-phenyl)-ethyl]-piperidine]
- IC50 [1, 4]: > 1000 nM
- IC50 (serotonin transporter): < 1000 nM
- IC50 (dopamine transporter): > 1000 nM

SMILES: OC(CN1CCCC(COc2ccc(C(F)(F)F)cc2)C1)C1(c2ccc(C(F)(F)F)cc2)CCC1 (stereo not drawn) [compound 166]
- IC50 [1, 2]: < 100 nM
- IC50 (serotonin transporter): > 1000 nM
- IC50 (dopamine transporter; [3]): < 10 nM

SMILES: OC(CN1CCCC(COc2ccc(C(F)(F)F)cc2)C1)C1(c2ccc(OC(F)(F)F)cc2)CCC1 (stereo not drawn) [compound 206, 1-[1-(4-Trifluoromethoxy-phenyl)-cyclobutyl]-2-[3-(4-trifluoromethyl-phenoxymethyl)-piperidin-1-yl]-ethanol]
- IC50 [1, 2]: < 1000 nM
- IC50 (serotonin transporter): < 1000 nM
- IC50 (dopamine transporter; [3]): < 100 nM

SMILES: CNC(CN1CCC[C@@H](CCc2ccccc2)C1)c1ccc(Cl)cc1 (stereo partly drawn) [compound 213, [1-(4-Chloro-phenyl)-2-(3(R)-phenethyl-piperidin-1-yl)-ethyl]-methyl-amine]
- IC50 [1, 2]: < 1000 nM
- IC50 (serotonin transporter): < 100 nM
- IC50 (dopamine transporter; [3]): < 1000 nM

SMILES: COc1ccc(OCC2CCCN(CC3(c4ccccc4)CCC3)C2)cc1 (stereo not drawn) [compound 55, 3-(4-Methoxy-phenoxymethyl)-1-(1-phenyl-cyclobutylmethyl)piperidine]
- IC50 [1, 2]: > 1000 nM
- IC50 (serotonin transporter): > 1000 nM
- IC50 (dopamine transporter; [3]): < 1000 nM

SMILES: OC(CN1CCCC(COc2ccc(C(F)(F)F)cc2)C1)c1ccc(Cl)cc1 (stereo not drawn) [compound 136, 1-(4-Chloro-phenyl)-2-[3-(4-trifluoromethyl-phenoxymethyl)-piperidin-1-yl]-ethanol]
- IC50 [1, 2]: < 1000 nM
- IC50 (serotonin transporter): < 100 nM
- IC50 (dopamine transporter; [3]): < 1000 nM

SMILES: CN(C)CC(Oc1ccc(C(F)(F)F)cc1)C1CCCN(CC2(c3ccc(Cl)cc3)CCC2)C1 (racemic) [compound 174]
- IC50 [1, 2]: < 1000 nM
- IC50 (serotonin transporter): < 100 nM
- IC50 (dopamine transporter; [3]): < 100 nM

SMILES: O=C(CN1CCCC(CCc2ccc(C(F)(F)F)cc2)C1)C1(c2ccc(Cl)cc2)CCC1 (stereo not drawn) [compound 155, 1-[1-(4-Chloro-phenyl)-cyclobutyl]-2-{3-[2-(4-trifluoromethyl-phenyl)-ethyl]-piperidin-1-yl}-ethanone]
- IC50 [1, 2]: > 1000 nM
- IC50 (serotonin transporter): > 1000 nM
- IC50 (dopamine transporter; [3]): < 100 nM

SMILES: OC(CN1CCCC(CCc2ccc(C(F)(F)F)cc2)C1)c1ccc(Cl)cc1 (single isomer, unassigned) [compound 154, 1-(4-Chloro-phenyl)-2-{3-[2-(4-trifluoromethyl-phenyl)-ethyl]-piperidin-1-yl}-ethanol]
- IC50 [1, 2]: < 100 nM
- IC50 (serotonin transporter): < 10 nM
- IC50 (dopamine transporter; [3]): < 10 nM

SMILES: CN(C[C@@H]1CCCN(CC2(c3ccc(Cl)cc3)CCC2)C1)c1ccccc1 [compound 35, {1-[1-(4-Chloro-phenyl)-cyclobutylmethyl]-piperidin-3-R-ylmethyl}-methyl-phenyl-amine]
- IC50 [1, 4]: > 1000 nM
- IC50 (serotonin transporter): > 1000 nM
- IC50 (dopamine transporter): > 1000 nM

SMILES: O=C(CN1CCCC(COc2ccccc2)C1)C1(c2ccc(Cl)cc2)CCC1 (stereo not drawn) [compound 20, 1-[1-(4-Chlorophenyl)cyclobutyl]-2-(3-phenoxymethylpiperidin-1-yl)ethanone]
- IC50 [1, 2]: < 1000 nM
- IC50 (serotonin transporter): < 1000 nM
- IC50 (dopamine transporter; [3]): < 1000 nM

SMILES: OC(CN1CCCC(COc2ccc(C(F)(F)F)cc2)C1)(c1ccccc1)C1CCCCC1 (stereo not drawn) [compound 191, 1-Cyclohexyl-1-phenyl-2-[3-(4-trifluoromethyl-phenoxymethyl)-piperidin-1-yl]-ethanol]
- IC50 [1, 4]: > 1000 nM
- IC50 (serotonin transporter): > 1000 nM
- IC50 (dopamine transporter; [3]): > 1000 nM

SMILES: OC(CN1CCCC(COc2ccccc2)C1)C1(c2ccc(Cl)cc2)CCC1 (stereo not drawn) [compound 21, 1-[1-(4-Chloro-phenyl)cyclobutyl]-2-(3-phenoxymethylpiperidin-1-yl)ethanol]
- IC50 [1, 2]: < 100 nM
- IC50 (serotonin transporter): < 1000 nM
- IC50 (dopamine transporter; [3]): < 100 nM

SMILES: CC(O)(C[C@H]1CCCN(CC2(c3ccc(Cl)cc3)CCC2)C1)c1ccccc1 (stereo in doubt) [compound 185, (S)-[1-{1-[1-(4-Chloro-phenyl)-cyclobutylmethyl]-piperidin-3-yl}-2-phenyl-propan-2-ol]]
- IC50 [1, 4]: > 1000 nM
- IC50 (serotonin transporter): > 1000 nM
- IC50 (dopamine transporter; [3]): < 1000 nM

SMILES: NCC1CCCN(CC2(c3ccc(Cl)cc3)CCC2)C1 (stereo not drawn) [compound 230, C-{1-[1-(4-Chloro-phenyl)-cyclobutylmethyl]-piperidin-3-yl}-methylamine]
- IC50 [1, 4]: > 1000 nM
- IC50 (serotonin transporter): > 1000 nM
- IC50 (dopamine transporter; [3]): < 100 nM
